Converted amounts (≈) assume the structure as drawn. The source made the active and inactive calls. The rule behind the calls is not given here.
Assays:
[1] = Lipophilicity, log D of the compound at pH 7.4; assay type: physicochemical; settings: buffer
[2] = biological target: Free fatty acid receptor 1 (Homo sapiens, UniProt O14842); assay: Antagonist activity against human GPR40 expressed in HEK293s FLPIN cells assessed as elaidic acid stimulated IP1 release after 2 hrs by TR-FRET analysis; assay type: functional, cell-based
[3] = Solubility of compound; assay type: physicochemical
[4] = biological target: Free fatty acid receptor 1 (Rattus norvegicus, UniProt Q8K3T4); assay: Antagonist activity against rat GPR40
[5] = Fraction unbound in human plasma; assay type: ADME, cell-free
Hepatocyte = assay: Intrinsic clearance in rat hepatocytes measured per 10^6 cells; assay type: ADME, cell-based
[6] = Fraction unbound in rat plasma; assay type: ADME, cell-free
[7] = Oral bioavailability in rat; assay type: ADME, organism-based; settings: in vivo
[8] = Clearance in rat; assay type: ADME, organism-based; settings: in vivo
Rattus norvegicus [9] = species on record: Rattus norvegicus; assay: Unbound clearance in rat; assay type: ADME, organism-based; settings: in vivo
[10] = Oral absorption in rat; assay type: ADME, organism-based; settings: in vivo, read-out: Fabs
Liver microsome = assay: Intrinsic clearance in human liver microsomes […]; assay type: ADME
[11] = Volume of distribution at steady state in rat; assay type: ADME, organism-based; settings: in vivo, read-out: Vdss
[12] = biological target: Free fatty acid receptor 1 (Mus musculus) (UniProt Q76JU9); assay: Antagonist activity against mouse GPR40
[13] = biological target: T1, Free fatty acid receptor 2 (Homo sapiens) (UniProt O15552); assay: Antagonist activity at GPR43 (unkown origin)
T1 sequence (whole entry): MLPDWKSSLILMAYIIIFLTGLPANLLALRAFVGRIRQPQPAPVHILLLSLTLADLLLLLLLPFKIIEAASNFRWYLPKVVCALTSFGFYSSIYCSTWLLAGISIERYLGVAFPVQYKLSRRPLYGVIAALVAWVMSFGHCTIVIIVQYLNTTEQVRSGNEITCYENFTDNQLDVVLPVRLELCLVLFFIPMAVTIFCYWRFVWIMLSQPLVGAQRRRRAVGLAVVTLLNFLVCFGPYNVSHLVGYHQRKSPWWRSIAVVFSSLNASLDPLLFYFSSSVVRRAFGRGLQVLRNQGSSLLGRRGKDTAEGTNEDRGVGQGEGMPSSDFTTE

Rattus norvegicus [14] = assay: Effect on plasma insulin level in male Zucker rat at 80 mg/kg measured after 4 hrs by ELISA relative to vehicle control; assay type: ADME, organism-based; settings: in vivo
Rattus norvegicus [15] = assay: Effect on plasma NEFA level in male Zucker rat at 80 mg/kg measured 4 hrs by ELISA assay relative to vehicle control; assay type: ADME, organism-based; settings: in vivo
Rattus norvegicus [16] = assay: Inhibition of NEFA-driven plasma insulin level in male Zucker rat pretreated with beta3-agonist for 30 mins at 80 mg/kg measured 4 hrs post dosing by ELISA; assay type: functional

Free fatty acid receptor 1 (Homo sapiens, UniProt O14842), sequence (O14842 whole entry): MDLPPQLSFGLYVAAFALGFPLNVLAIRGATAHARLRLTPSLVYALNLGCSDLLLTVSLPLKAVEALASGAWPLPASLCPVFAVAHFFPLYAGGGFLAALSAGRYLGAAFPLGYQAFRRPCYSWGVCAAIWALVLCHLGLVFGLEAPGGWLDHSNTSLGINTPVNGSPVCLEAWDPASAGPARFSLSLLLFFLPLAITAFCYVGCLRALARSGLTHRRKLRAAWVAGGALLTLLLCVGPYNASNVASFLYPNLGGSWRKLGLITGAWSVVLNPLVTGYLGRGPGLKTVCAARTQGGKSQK
Free fatty acid receptor 1 (Rattus norvegicus, UniProt Q8K3T4), sequence (Q8K3T4 whole entry): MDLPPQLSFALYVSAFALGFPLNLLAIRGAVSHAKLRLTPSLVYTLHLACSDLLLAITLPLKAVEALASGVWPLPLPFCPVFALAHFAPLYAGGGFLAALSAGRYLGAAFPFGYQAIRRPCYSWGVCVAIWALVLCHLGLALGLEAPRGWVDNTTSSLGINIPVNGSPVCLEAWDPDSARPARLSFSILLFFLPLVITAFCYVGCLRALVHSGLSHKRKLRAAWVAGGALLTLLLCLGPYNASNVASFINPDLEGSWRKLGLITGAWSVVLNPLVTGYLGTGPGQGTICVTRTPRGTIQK
Free fatty acid receptor 1 (Mus musculus), sequence (Q76JU9 whole entry): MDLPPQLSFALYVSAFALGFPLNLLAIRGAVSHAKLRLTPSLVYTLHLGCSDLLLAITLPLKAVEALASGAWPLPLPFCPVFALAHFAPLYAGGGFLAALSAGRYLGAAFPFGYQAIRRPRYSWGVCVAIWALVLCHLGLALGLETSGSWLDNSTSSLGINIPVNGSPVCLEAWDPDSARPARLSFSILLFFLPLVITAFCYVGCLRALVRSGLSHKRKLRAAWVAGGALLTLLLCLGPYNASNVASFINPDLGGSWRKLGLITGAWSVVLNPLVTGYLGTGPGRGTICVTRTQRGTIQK

| logD [1] | IC50 [2] [nM] | Compound | other results |
| --- | --- | --- | --- |
| 3.6 | 1260 | COc1cc(COc2cccc(F)c2)nc(-c2ccccn2)n1 |  |
| 3.1 | 1580 | Cc1cc(COc2c(F)ccc(F)c2F)nc(-c2ccccn2)n1 |  |
| 2.9 | 398 | Cc1cc(COc2ccccc2F)nc(-c2ccccn2)n1 |  |
| 3.4 | 398 | Cc1cc(COc2cc(F)c(F)c(F)c2)nc(-c2ccccn2)n1 |  |
| 3.3 | 251 | Cc1cc(COc2ccc(F)c(F)c2F)nc(-c2ccccn2)n1 | solubility [3]: 22 µM (≈ 7.29 µg/mL); IC50 [4]: 200 nM; fraction unbound [5]: 0.03; CLint (Hepatocyte): 17 µL/min/1e6 cells; fraction unbound [6]: 0.063; bioavailability [7]: 39%; clearance [8]: 24 mL/min/kg; CL free (Rattus norvegicus [9]): 380 mL/min/kg; Fa [10]: 59%; CLint (Liver microsome): 57 µL/min/mg; Vd [11]: 2.3 L/kg |
| 3.7 | 316 | Fc1ccc(OCc2cc(OCC3COC3)nc(-c3ccccn3)n2)c(F)c1F |  |
| 3.2 | 398 | Cc1cc(COc2cccc(F)c2F)nc(-c2ccccn2)n1 |  |
| > 4.9 | 7.94 | Fc1ccc(OCc2cc(OCC(F)(F)F)nc(-c3ccccn3)n2)c(F)c1F |  |
| 4.3 | 25.1 | CC1(C)CN(c2cc(COc3ccc(F)c(F)c3F)nc(-c3ccccn3)n2)C1 |  |
| 2.9 | 6310 | CC1(CS(C)(=O)=O)CN(c2cc(COc3ccc(F)c(F)c3F)nc(-c3ccccn3)n2)C1 |  |
| 4.5 | 12.6 | Fc1ccc(OCc2cc(OCC3CCC3)nc(-c3ccccn3)n2)c(F)c1F |  |
| 3 | 631 | Cc1cc(COc2ccc(F)cc2)nc(-c2ccccn2)n1 |  |
| 3.2 | 501 | Cc1cc(COc2ccc(F)c(F)c2)nc(-c2ccccn2)n1 |  |
| 3.4 | 501 | Cc1cc(COc2cc(F)cc(F)c2F)nc(-c2ccccn2)n1 |  |
| 3.3 | 158 | CC1(C#N)CN(c2cc(COc3ccc(F)c(F)c3F)nc(-c3ccccn3)n2)C1 | solubility [3]: 2.9 µM (≈ 1.19 µg/mL); IC50 [4]: 63.1 nM; inhibition [12]: Active; inhibition [13]: inactive; fraction unbound [5]: 0.048; CLint (Hepatocyte): 26 µL/min/1e6 cells; fraction unbound [6]: 0.056; bioavailability [7]: 32%; Activity (Rattus norvegicus [14]): Non-toxic; Activity (Rattus norvegicus [15]): Non-toxic; clearance [8]: 30 mL/min/kg; CL free (Rattus norvegicus [9]): 540 mL/min/kg; Fa [10]: 56%; CLint (Liver microsome): 52 µL/min/mg; inhibition in vivo at 80 mg/kg (Rattus norvegicus [16]): 70%; Vd [11]: 3 L/kg |
| 3.5 | 501 | COC1(COc2cc(COc3ccc(F)c(F)c3F)nc(-c3ccccn3)n2)COC1 |  |
| 2.8 | 3160 | OC1CN(c2cc(COc3ccc(F)c(F)c3F)nc(-c3ccccn3)n2)C1 |  |
| 3.3 | 501 | Fc1ccc(OCc2cc(N3CC4(CCO4)C3)nc(-c3ccccn3)n2)c(F)c1F |  |
| 2.5 | 2000 | COc1ccccc1OCc1cc(C)nc(-c2ccccn2)n1 |  |
| 3.2 | 1260 | Cc1cc(COc2c(F)cc(F)cc2F)nc(-c2ccccn2)n1 |  |
| 3.1 | 398 | Cc1cc(COc2ccc(F)cc2F)nc(-c2ccccn2)n1 |  |
| 3.1 | 794 | Cc1cc(COc2cccc(F)c2)nc(-c2ccccn2)n1 |  |
| 3.7 | 251 | Cc1cc(COc2ccc(Cl)cc2)nc(-c2ccccn2)n1 |  |
| 4 | 79.4 | CC1(COc2cc(COc3ccc(F)c(F)c3F)nc(-c3ccccn3)n2)COC1 |  |
| 4.1 | 251 | CCOc1cc(COc2cccc(F)c2)nc(-c2ccccn2)n1 |  |
| 3.2 | 398 | Cc1cc(COc2cc(F)c(F)cc2F)nc(-c2ccccn2)n1 |  |
| 4 |  | Fc1ccc(OCc2cc(OCC3(F)COC3)nc(-c3ccccn3)n2)c(F)c1F | solubility [3]: 2.9 µM (≈ 1.22 µg/mL); IC50 [4]: 31.6 nM; fraction unbound [5]: 0.015; CLint (Hepatocyte): 72 µL/min/1e6 cells; fraction unbound [6]: 0.017; bioavailability [7]: 12%; clearance [8]: 19 mL/min/kg; CL free (Rattus norvegicus [9]): 1100 mL/min/kg; Fa [10]: 16%; CLint (Liver microsome): 56 µL/min/mg; Vd [11]: 1.4 L/kg |
| 3.3 | 398 | N#CCC1(COc2cc(COc3ccc(F)c(F)c3F)nc(-c3ccccn3)n2)COC1 |  |

The next lines start with the molecule.

| Compound | logD [1] | IC50 [2] [nM] | other results |
| --- | --- | --- | --- |
| COc1cccc(OCc2cc(C)nc(-c3ccccn3)n2)c1 | 2.9 | 2000 |  |
| Cc1cc(COc2ccccc2S(C)(=O)=O)nc(-c2ccccn2)n1 | 1.5 | > 39800 |  |
| Cc1cc(COc2ccccc2)nc(-c2ccccn2)n1 | 3.4 | 794 |  |
| c1ccc(OCc2cc(N3CCOCC3)nc(-c3ccccn3)n2)cc1 | 2.8 | 631 |  |
| Cc1cc(COc2ccccc2Cl)nc(-c2ccccn2)n1 | 3.4 | 316 |  |
| Cc1cc(COc2cccc(C#N)c2)nc(-c2ccccn2)n1 | 2.7 | 2510 |  |
| COc1ccc(OCc2cc(C)nc(-c3ccccn3)n2)cc1 | 2.8 | 7940 |  |
| CN(C)c1cc(COc2cccc(F)c2)nc(-c2ccccn2)n1 | 3.6 | 1580 |  |
| CC(=O)Nc1ccccc1OCc1cc(C)nc(-c2ccccn2)n1 | 1.6 | > 39800 |  |
| CC(=O)Nc1ccc(OCc2cc(C)nc(-c3ccccn3)n2)cc1 | 1.9 | > 39800 |  |
| Cc1cc(COc2cccc(S(C)(=O)=O)c2)nc(-c2ccccn2)n1 | 1.7 | > 39800 |  |
| Cc1cc(COc2cccc(Cl)c2)nc(-c2ccccn2)n1 | 3.7 | 398 |  |
| CC(C)Nc1cc(COc2cccc(F)c2)nc(-c2ccccn2)n1 | 4.3 | 100 |  |
| Cc1cc(COc2ccc(C#N)cc2)nc(-c2ccccn2)n1 | 2.6 | 31600 |  |
| Cc1cc(COc2ccccc2C#N)nc(-c2ccccn2)n1 | 2.7 | 10000 |  |
| Cc1cc(COc2ccc(S(C)(=O)=O)cc2)nc(-c2ccccn2)n1 | 1.5 | > 39800 |  |
| CC(=O)Nc1cccc(OCc2cc(C)nc(-c3ccccn3)n2)c1 | 2.1 | > 39800 |  |
| CCNc1cc(COc2cccc(F)c2)nc(-c2ccccn2)n1 | 3.9 | 631 |  |
| Cc1cc(N/N=C/c2ccccc2)nc(-c2ccccc2)n1 | 4.3 | 251 | solubility [3]: < 0.3 µM |

Source: ChEMBL document CHEMBL3739339, “Discovery of a series of 2-(pyridinyl)pyrimidines as potent antagonists of GPR40” (Medchemcomm, 2015)
